Test results taken from patent publication US6124308A, “Optically active phenyl pyrimidine derivatives as analgesic agent” (priority 1995, dated 2000).
Like-named read-outs stand apart in the source and are kept apart here.

What was measured:
[1] = system: striatal dopamine in MPTP injected C57B1/6 mice; assay: MPTP induced neurotoxic model, striatal dopamine levels; format: in vivo, mouse
Description: Six-week old male C57B1/6 mice (Japan SLC Co., Hamamatu) were housed ten per case in a temperature-controlled room under a 12-hours light/12-hours dark cycle with free access to food and water.
Mice received i.p. injections of the R(-) enantiomer and the S(+) enantiomer (30 mg/kg) in olive oil starting 12 hours before MPTP injection and every 12 hours for the next 5-injections. Control mice received olive oil only.
Mice receive s.c. injection of MPTP-HCl (40 mg of free base per kg; Research Biochemicals) in saline. Control mice received saline only.
HPLC with electrochemical detection was used to measure striatal levels of dopamine (J.C. Garcia': Journal of Chromatography B. 656 (1994) 77-80).
Seven days after the MPTP injection, mice ([…]) were killed and striata were dissected out, immediately frozen, and stored at -80° C. until analysis. On the day of the assay, tissue samples were sonicated in 10 vol(wt/vol) of 0.1M perchloric acid /1.9 mM sodium hydrogen sulfite containing 1.6μg/ml 3,4-dihydroxybenzylamine hydrobromide(Sigma) as an internal standard. After centrifugation (2,800× g for 10 min at room temperature) and filtration (0.5 μm; Millipore membrane filter), 10 μl of supernatant was injected onto an Inertsil ODS3 column (4.6×250 mm; GL Science, Tokyo). The mobile phase consisted of 88% 115 mM NaH2 PO4 /0.178 mM Na2 EDTA /0.92 mM 1-octanesulfonic acid (pH=2.6) solution and 12% ethanol. F low rate was 1.0 ml/min. Peaks were detected by a Shimazu electrochemical detector LECD-6A(700 mV).

[2] = system: whole-cell sodium currents in cultured rat hippocampal neurones; assay: Whole-cell sodium currents in cultured embryonic rat hippocampal neurones, patch-clamp; format: cell-based
Source text: (b) Cultured embryonic rat hippocampal neurones
Sodium currents were elicited by the application of 20 msec dipolarisng pulses, thereby lowering membrane potential to -10 mV from a holding potential of -60 mV.

[3] = system: PGE2-induced acute hyperalgesia; assay: Effects on the development of PGE2-induced acute hyperalgesia (paw pressure); format: in vivo, rat; settings: p.o., 1 h before PGE2 (100 ng), n=5
Description: Effects on the development of PGE2 -induced acute hyperalgesia
Reaction times to paw pressure were measured 3 h after PGE2 injection. Ataxia was scored at the same time by observation of the rats placed in an arena.

[4] = system: veratrine-evoked glutamate release from rat brain slices; assay: Inhibition of veratrine-evoked glutamate release; format: cell-based; settings: at 10 μM
[5] = system: maximal electroshock seizure; assay: Maximal electroshock test, mice, different routes of administration; format: in vivo, mouse; settings: for ED50: Mus musculus, mice, 1 hour, read-out: ED50 (95% limits)
[6] = target: T1, rat type IIA sodium channels (Rattus norvegicus, UniProt P04775); assay: Recombinant rat type IIA sodium channels in chinese hamster ovary cells, whole-cell recording; format: cell-based; settings: for IC50: read-out: IC50 (inhibition of Na+ currents)
T1 construct: no beta subunit mentioned
T1 sequence (P04775 whole entry): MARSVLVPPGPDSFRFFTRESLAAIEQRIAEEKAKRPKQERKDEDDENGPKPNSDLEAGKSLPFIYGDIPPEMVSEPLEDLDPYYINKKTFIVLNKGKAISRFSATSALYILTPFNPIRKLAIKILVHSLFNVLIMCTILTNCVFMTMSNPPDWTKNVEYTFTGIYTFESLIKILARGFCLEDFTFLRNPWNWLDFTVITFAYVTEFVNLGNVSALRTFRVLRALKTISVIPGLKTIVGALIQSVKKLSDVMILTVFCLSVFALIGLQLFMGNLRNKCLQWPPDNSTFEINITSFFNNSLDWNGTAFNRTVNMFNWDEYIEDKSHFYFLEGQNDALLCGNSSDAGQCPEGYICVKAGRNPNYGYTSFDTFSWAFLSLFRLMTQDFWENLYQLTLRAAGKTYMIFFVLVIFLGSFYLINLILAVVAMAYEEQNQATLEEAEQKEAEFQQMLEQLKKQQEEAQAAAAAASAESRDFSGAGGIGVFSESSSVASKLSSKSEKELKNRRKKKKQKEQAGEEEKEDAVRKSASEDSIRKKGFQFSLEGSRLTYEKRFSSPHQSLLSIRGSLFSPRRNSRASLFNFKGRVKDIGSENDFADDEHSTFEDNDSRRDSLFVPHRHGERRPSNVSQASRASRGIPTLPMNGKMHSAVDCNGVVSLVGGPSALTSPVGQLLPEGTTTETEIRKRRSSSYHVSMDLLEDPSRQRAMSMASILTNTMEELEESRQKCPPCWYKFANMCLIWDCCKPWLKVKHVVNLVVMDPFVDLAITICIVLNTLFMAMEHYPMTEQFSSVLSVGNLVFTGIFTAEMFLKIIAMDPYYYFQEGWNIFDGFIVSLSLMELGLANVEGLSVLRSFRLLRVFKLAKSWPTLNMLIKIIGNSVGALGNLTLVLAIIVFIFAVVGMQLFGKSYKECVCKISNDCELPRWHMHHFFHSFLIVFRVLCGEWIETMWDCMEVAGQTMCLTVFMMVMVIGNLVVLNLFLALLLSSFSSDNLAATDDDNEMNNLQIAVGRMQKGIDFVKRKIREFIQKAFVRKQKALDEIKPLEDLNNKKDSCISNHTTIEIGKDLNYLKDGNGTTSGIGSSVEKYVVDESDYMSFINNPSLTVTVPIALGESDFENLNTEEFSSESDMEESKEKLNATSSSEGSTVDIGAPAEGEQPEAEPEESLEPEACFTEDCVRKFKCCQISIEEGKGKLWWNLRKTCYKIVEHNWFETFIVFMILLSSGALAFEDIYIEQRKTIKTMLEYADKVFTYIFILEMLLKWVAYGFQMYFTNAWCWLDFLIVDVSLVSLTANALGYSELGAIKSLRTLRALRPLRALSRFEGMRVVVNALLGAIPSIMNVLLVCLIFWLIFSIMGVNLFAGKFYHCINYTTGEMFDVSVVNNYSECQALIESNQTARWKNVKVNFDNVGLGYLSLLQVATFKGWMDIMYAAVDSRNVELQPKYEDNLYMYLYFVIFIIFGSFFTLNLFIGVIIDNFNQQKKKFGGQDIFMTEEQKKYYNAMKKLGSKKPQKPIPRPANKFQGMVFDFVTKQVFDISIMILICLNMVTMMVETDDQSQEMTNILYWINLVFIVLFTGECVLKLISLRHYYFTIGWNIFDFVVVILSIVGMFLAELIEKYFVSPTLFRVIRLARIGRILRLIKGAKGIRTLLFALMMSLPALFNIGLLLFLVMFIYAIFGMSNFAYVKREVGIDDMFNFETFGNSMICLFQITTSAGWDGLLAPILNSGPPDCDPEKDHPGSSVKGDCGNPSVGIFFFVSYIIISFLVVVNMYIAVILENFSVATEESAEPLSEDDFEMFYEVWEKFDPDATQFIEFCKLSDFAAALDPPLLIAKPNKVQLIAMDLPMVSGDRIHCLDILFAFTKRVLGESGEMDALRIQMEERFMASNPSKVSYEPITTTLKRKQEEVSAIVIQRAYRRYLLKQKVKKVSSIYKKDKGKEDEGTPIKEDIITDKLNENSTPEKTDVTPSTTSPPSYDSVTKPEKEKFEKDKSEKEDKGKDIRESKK
Source text: The IC50 's at two different holding potentials (Vh) were as follows: […]

[7] = system: hind-limb extension (maximal electroshock seizure); assay: Maximal electroshock test, rats, i.p., duration of action; format: in vivo, rat; settings: for ED50: Rattus norvegicus, ip, read-out: ED50 (95% limits)
[8] = system: established PGE2-induced acute hyperalgesia; assay: Effects on established PGE2-induced acute hyperalgesia (paw pressure); format: in vivo; settings: Rattus norvegicus, po, 2 h after PGE2 (100 ng); read-out: analgesia ED50 and 95% confidence limits
Description: Effects on established PGE2 -induced acute hyperalgesia
The R(-)enantiomer was given orally 2 h after subplantar injection of PGE2 (100 ng) when the hyperalgesia was established. Reaction time to paw pressure was measured 3 h after the PGE2 administration.

[9] = system: electrical activity of the external oblique muscle (egg albumin sensitised rats); assay: Irritable bowel syndrome model: colorectal distension in egg albumin sensitised rats; format: in vivo, rat; settings: 10 mg/kg p.o., 60 minutes before pressure response curve
Description: Male Listar hooded rats weight range 100-150 g were used.
The rats were sensitised by dosing ip (1 ml per rat) with a solution containing egg albumin, (10 ug/ml) pertusssis vaccine (1 mg/ml) and aluminium hydroxide (10 mg/ml). Control animals received saline.
Seven days later the rats were anaesthetised using isofurane and the external oblique muscle exposed. Two nichrome wires were implanted into the muscles and the wires exteriorised to the back of the neck, the skin was sutured and the animals were allowed to recover.
Six days later the animals were fasted overnight. On the following day the animals were anaesthetised and the colorectum washed out using saline. A 4 cm long latex balloon tied to a portex cannula was connected to an inflation device, and the nichrome electrodes at the back of the neck were connected to head stage.
The electrical activity of the external oblique muscle was recorded by a data capture system (`spike2`) which calculated the number of electrical spikes. Sequential pressure response curves (10-100 mmHg) in sensitised and the control animals were constructed. The balloon was inflated for 1 min at each pressure, followed by a rest period of 5 min.
The mean number of spikes at each pressure was calculated for the control animals, sensitised animals and sensitised animals treated with the R(-) enantiomer. […]

[10] = target: T2, rat liver DHFR (Rattus norvegicus, UniProt Q920D2); assay: Activity against dihydrofolate reductase (DHFR), spectrophotometric assay; format: biochemical
T2 construct: rat liver DHFR; from tissue; host or cells: rat liver
T2 sequence (Q920D2 1-187): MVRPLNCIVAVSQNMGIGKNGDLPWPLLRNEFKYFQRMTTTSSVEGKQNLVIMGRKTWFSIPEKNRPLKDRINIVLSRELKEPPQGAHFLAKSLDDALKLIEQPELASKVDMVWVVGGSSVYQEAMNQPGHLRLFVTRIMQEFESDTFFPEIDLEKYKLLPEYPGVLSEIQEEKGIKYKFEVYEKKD

[11] = Half-life in male rats; format: in vivo, rat; settings: rat, in vivo, read-out: half-life (t1/2) (converted)
[12] = system: native channels in cultured rat striatal neurones (Na+ currents); assay: Native sodium channels in cultured rat striatal neurones, whole-cell recording; format: cell-based
Source text: The action of the R(-)enantiomer on native channels in cultured rat striatal neurones was studied using whole-cell recording techniques.

**Q.** With Nc1nc(N)c(-c2cccc(Cl)c2Cl)c(CF)n1 [R(-)enantiomer, R(-)-2,4-diamino-5-(2,3-dichlorophenyl)-6-fluoromethyl pyrimidine] as the compound, how does the “% protection” value ([1]; 30 mg/kg i.p. 6 times, MPTP 40 mg/kg s.c.) read?
**A.** 81.0%

**Q.** What about the “Dopamine content in the striatum” value ([1]; 30 mg/kg i.p. 6 times, MPTP 40 mg/kg s.c., day 7) of the same compound?
**A.** 12.45 ± 1.18 μg/g wet tissue

**Q.** And the “% mortality” value ([1]; 30 mg/kg i.p., day -1 to 7)?
**A.** 0%

**Q.** What about the IC50 ([2]; 20 msec pulses to -10 mV from holding potential -60 mV, read-out: IC50 (reduction of peak sodium current)) of the same compound?
**A.** 4 µM

**Q.** What about the “reduction of peak sodium current” value ([2]; holding potential -60 mV) of the same compound?
**A.** concentration-dependent reduction of peak sodium current

**Q.** And the “Analgesia ED50 (95% limits)” value [3]?
**A.** 2.5 (2.2-2.9) mg/kg

**Q.** And the “inhibition of veratrine-evoked glutamate release” value [4]?
**A.** 64%

**Q.** What about the ED50 ([5]; ip, i.p.) of the same compound?
**A.** 1.3 mg/kg

**Q.** And the ED50 ([5]; po, p.o.)?
**A.** 1.2 mg/kg

**Q.** And the ED50 ([5]; sc, s.c.)?
**A.** 0.96 mg/kg

**Q.** And the “times more potent than lamotrigine in the maximal electroshock test” value ([5]; in rats and mice)?
**A.** 2-3 times

**Q.** And the “activity by the various routes tested” value ([5]; maximal electroshock, rats and mice)?
**A.** approximately equiactive by the various routes tested

**Q.** What about the “inhibition of Na+ currents” value ([6]; R(-)enantiomer 1-500 μM) of the same compound?
**A.** inhibition of Na^+ currents in a concentration-dependent and voltage-dependent manner

**Q.** And the IC50 ([6]; Vh = -60 mV)?
**A.** 18 µM

**Q.** And the IC50 ([6]; Vh = -90 mV)?
**A.** 160 µM

**Q.** And the ED50 ([7]; 8 h, i.p., rats, 8 hours)?
**A.** 5.9 mg/kg

**Q.** What about the ED50 ([7]; 24 h, i.p., rats, 24 hours) of the same compound?
**A.** 12.9 mg/kg

**Q.** And the “times more active than its S(=)enantiomer” value ([7]; anticonvulsant, rats, i.p.)?
**A.** 15-20 times

**Q.** And the “times more active than lamotrigine” value ([7]; anticonvulsant, rats, i.p.)?
**A.** 2-3 times

**Q.** What about the “ED50 at 2 hrs (isethionate salt versus base)” value ([7]; i.p., 2 hrs, calculated as the base, p<0.05, listed as R(-) enantiomer base, 120 min) of the same compound?
**A.** 2.5 mg/kg

**Q.** What about the “ED50 (95% limits)” value ([7]; i.p., rats, 0.5 hours, 30 min) of the same compound?
**A.** 1.3 (0.9-1.9) mg/kg

**Q.** And the “ED50 (95% limits)” value ([7]; i.p., rats, 1 hour, 60 min)?
**A.** 1.0 (0.7-1.5) mg/kg

**Q.** And the “ED50 (95% limits)” value ([7]; i.p., rats, 2 hours, 120 min)?
**A.** 1.2 (0.8-1.7) mg/kg

**Q.** And the “ED50 (95% limits)” value ([7]; i.p., rats, 4 hours, 240 min)?
**A.** 2.3 (1.6-3.4) mg/kg

**Q.** What about the duration of action ([7]; maximal electroshock) of the same compound?
**A.** long duration of action

**Q.** And the ED50 [8]?
**A.** 3.4 mg/kg

**Q.** And the “reversal of the changes induced by egg albumin” value [9]?
**A.** complete reversal

**Q.** And the inhibition at 100 µM [10]?
**A.** 25%

**Q.** What about the half-life [11] of the same compound?
**A.** 5.4 h

**Q.** And the “inhibition of Na+ currents” value [12]?
**A.** concentration- and voltage-dependent inhibition of Na^+ currents

**Q.** What about the “inhibition by 10-30 μM on hyperpolarising the cells” value ([12]; 10-30 μM, Vh = -120 mV) of the same compound?
**A.** virtually eliminated

**Q.** What about the IC50 ([12]; Rattus norvegicus, holding potential (Vh) of 60 mV, read-out: IC50 (inhibition of Na+ currents)) of the same compound?
**A.** ~8 µM

**Q.** And the “potency at Vh = -90 mV compared with IC50 at 60 mV” value ([12]; Vh = -90 mV)?
**A.** much lower potency
